Source: US20150148411A1, “COMPOSITIONS AND METHODS FOR DIAGNOSIS AND THERAPY OF DISORDERS RELATED TO ALTERATIONS OF MYH9” (THE ROCKEFELLER UNIVERSITY, priority 2013, published 2015)
“Also recorded” adds a separate entry of the source. Where a SMILES comes first, the peptide text is derived from it. The star is where a group is joined. Cbz = O=C(OCc1ccccc1)*

How the values were obtained:
p53 activation = assay: p53/DNA damage response: p53 immunoblot of doxorubicin-treated primary keratinocytes; format: cell-based, mouse; settings: for DDR-induced p53 activation (p53 immunoblot): doxorubicin-treated mouse keratinocytes, blebbistatin 4 μM, Y27632 10 μM, latrunculin 2 μM
Method: (§1) Western Blot analysis:-Protein blotting was carried out using standard protocols. Briefly, total cell lysates were prepared using RIPA (20 mM Tris-HCl (pH 8.0), 150 mM NaCl 1 mM EDTA, 1mM EGTA, 1% Triton X-100, 0.5% Deoxycorate, 0.1% SDS, 25 mM β-glycerophosphate, 10 mM NaF, 1 mM Na3VO4) supplemented with protease inhibitors (Complete mini, Roche). Blots were blocked with 5% BSA in 1×TBS 0.1% Tween-20 (TBST) for 1 h and incubated with the primary antibody overnight at 4° C. (diluted in TBST according to the manufacturer's protocol). Primary antibodies were reactive to rabbit anti-Myh9 (1:500, HPA001644, Sigma); phosphorylated (P) Erk1/2 (1:1000, #9101, Cell Signaling), Erk1/2 (1:1000, #9102, Cell Signaling), mouse anti-p53 (1:500, #2524, Cell Signaling), mouse anti-p21(F5) (1:500; sc-6246, Santa Cruz), mouse anti-GAPDH (ab8245, 1:5000; Abcam), mouse anti-Chk2 (1:500, #611570, BD); rabbit anti-P-Chk1 (1:500, #12302P, Cell Signaling); mouse anti-Chk1 (1:1000, 2360S, Cell Signaling); rabbit anti-pSmad2 (Ser465/467) (1:1000, Cell Signaling) and mouse anti-Smad2/3 (610843, 1/500; BD). Blots were washed three times in TBST for 30 min, incubated with HRP-conjugated secondary antibodies (1:2,000; Promega) for lh at room temperature, washed 3 times in TBST for 30 min and visualized using enhanced chemiluminescence (ECL).
(§2) p53/DNA damage responses:_For measurement of DNA damage response and p53 activation primary mouse keratinocytes cells were seeded at a cell density of 100,000 cells per well in a 6-well plate and allowed to grow for 24 h at 3% O2 till importantly 100% confluency. Cells were then treated with doxorubicin ([…]) as previously reported. For experiments using blebbistatin, cells were pretreated with blebbistatin (4 μM final concentration, Sigma B0560) 30 min prior to doxorubicin treatment. The Rock inhibitor Y27632 was used at 10 μM (Sigma Y0503), LatrunculinA was used at 2 μM (Sigma L5163), LeptomycinB was used at 20 nM (Sigma #9676) and the proteasome inhibitor MG132 was used at 3 μM (Sigma M7449).

H2AX, Chk1 and Chk2 = assay: DDR activation markers by Western blot (γH2AX, phosphorylated Chk1, Chk2); format: cell-based, mouse; settings: keratinocytes treated with inhibitor
Method: as §1, §2

nuclear p53 accumulation = assay: Nuclear p53 retention in DDR-induced Myh9-knockdown primary keratinocytes (nuclear/cytoplasmic fractions); format: cell-based, mouse; settings: LeptomycinB 20 nM; for nuclear p53 accumulation/retention after DNA damage: DDR-induced Myh9-knockdown (myosin-IIa-deficient) keratinocytes, blebbistatin 4 μM
Method: as §1, §2

HNSCC tumor suppressors = assay: Pooled in vivo shRNA screen with deep sequencing of tumors; design: species or system mouse; settings: deep sequencing of 87 lesions
Description: Constructs and RNAi: shRNA constructs for the shRNA pool were obtained from The Broad Institute's Mission TRC-1 mouse library. We tested and used especially the following shRNAs targeting Brcal and Myh9:
Tumor free survival: Control and TβRII-cKO animals were transduced at E9.5 with low-titer shRNA pool targeting orthologs of putative HNSCC genes, including Brcal or Myh9. Scrambled shRNA was used as control. Transductions and knockdowns were confirmed by real-time PCR of mRNAs isolated from newborn skin epidermis or by fluorescence microscopy of a lentiviral reporter fluor, H2B-RFP or H2B-GFP. Animals were assessed biweekly for signs of tumorigenesis, and were considered positive if lesions grew to be larger than 2 mm in diameter.
Deep Sequencing: Sample preparation, preamplification and sequence processing Epidermal and tumor cells were subjected to genomic DNA isolation with the DNeasy Blood & Tissue Kit (Qiagen), and each sample was analyzed for target transduction using real-time PCR. […] Illumina reads were trimmed to the 21 nt hairpin sequence using the FASTX-Toolkit and aligned to the TRC 2.x library with BWA (v 0.6.2)44 using a maximum edit distance of 3. Hits were ranked based on (a) numbers of shRNAs that targeted the gene and scored positively in the screen, with 2 out of 5 shRNAs being considered meaningful; and (b) numbers of tumors enriched for a specific shRNA.

[1] = tested on: hair follicle down-growth; assay: Hair follicle and eyelid phenotype of newborn mice transduced at E9.5; format: in vivo, mouse
Method: Materials and Methods. Mice and lentiviral transductions: TβRII foxed mice were crossed to K14-Cre and/or Rosa26YFPlox/stop/lox mice and or K14-CreER mice. Myh9 floxed mice were purchased form EMMA (EM:02572). CD1 mice were from Charles River laboratories. Large-scale production and concentration of lentivirus (6−10^9 cfu/ml) as well as ultrasound-guided lentiviral injection were performed as previously described. As controls for knock-down mice, littermates were infected with a non-targeting scrambled-shRNA, which activates the endogenous microRNA processing pathway but is not known to target any gene. Myh9fl/fl K14CreER mice were injected i.p. with 2 mg tamoxifen (20 mg/ml stock solution in corn oil) for 5 consecutive days at 6-8 weeks of age. DMBA/TPA treatment was performed as previously described. Briefly, 7-8 week old CD1 mice in second telogen were shaved and treated with 400 nmol DMBA in 100 ul aceton one week later. Thereafter, mice were treated with […] TPA in 100 ul aceton wice weekly for 20 weeks. All animals were maintained in an AAALAC-approved animal facility and procedures were performed with protocols approved by IACUC and in accordance with the National Institutes of Health.
Immunohistochemistry and histological analyses of mouse and human Tumors: Immunohistochemistry was performed as previously described. […]

keratinocytes = assay: Scratch wound assay on keratinocytes infected in vitro; format: cell-based, mouse; settings: versus scrambled control
myosin-IIa = assay: Myosin-IIa protein by immunoblot/immunohistochemistry in transduced mice; format: in vivo, mouse
Method: Immunohistochemistry and histological analyses of mouse and human Tumors: Immunohistochemistry was performed as previously described. Briefly, 5-μm sections were cut, stained with H&E or processed for immunohistochemistry/immunofluorescence microscopy. Whole-mount staining of mammary glands was performed as described. For immunoperoxidase staining, paraffin-embedded sections were dehydrated and antigenic epitopes exposed using a 10-mM citrate buffer (pH 6.0) in a pressure cooker. Sections were incubated with the following primary antibodies at 4° C. overnight: rabbit anti-K14 (1:500; E. Fuchs) and rabbit anti-Myh9 (HPA001644, 1:500 Sigma). Primary antibody staining was visualized using peroxidase-conjugated anti-rabbit IgG followed by the DAB substrate kit for peroxidase visualization of secondary antibodies (Vector Laboratories). The following human tissue microarray comprising 48 healthy human skin samples, 30 hyperplastic skin lesions and 206 human skin SCCs as well as from 156 HNSCCs were obtained from US Biomax, Rockeville, Md.: SK244a, SK241, SK242, SK801, SK802, SK2081, SK801b and HN803a, HN811a, HN483.
Western Blot analysis:-Protein blotting was carried out using standard protocols. […]

nuclear p53 = assay: Nuclear p53 immunofluorescence in skin 6 hours after γ-irradiation (5Gy); format: in vivo, mouse; settings: H2B-RFP labeled infected cells
Description: Immunofluorescence staining The following primary antibodies were used for immunofluorescence: chicken anti-GFP (1:2000; Abcam); guinea-pig anti-K5 (1:500; E. Fuchs); rat anti-K14 (1:500; E. Fuchs); rabbit anti-K6 (1:500; E. Fuchs); rabbit anti-K18 (1:500; E. Fuchs); rat anti-CD104 β4-integrin (346-11A, 1:300; BD); rabbit anti loricin (1:500; E. Fuchs); rabbit anti-Caspase 3 (AF835, 1:1000; R&D), rabbit anti-K10 (PRB-159P, 1:1000; Covance); rabbit anti-Myh9 (HPA001644, 1:500 Sigma); rabbit anti-SMA (ab5694 1:300; Abcam) and rabit anti-p53 (NCL-p53-CMSp, 1:300; Leica). Secondary antibodies were conjugated to Alexa-488, 546, or 647 (1:1000, Life Technologies). Cells and tissues were processed as previously reported, and mounted in Vectashield HardSet mounting medium with DAPI (Life Technologies). […] For quantifications of nuclear p53, images were captured using an inverted Zeiss LSM 780 laser scanning microscope, powered by Zen software. Quantitative image analysis was performed using ImageJ software. To quantify p53 nuclear staining, the following formula was used: CTCF (corrected total cell fluorescence)=whole nucleus signal−(mean background signal (measured in the suprabasal layer)×area of the nucleus measured).

Compound: CC(C)C[C@@H](C=O)NC(=O)[C@H](CC(C)C)NC(=O)[C@H](CC(C)C)NC(=O)OCc1ccccc1 [MG132] (Cbz-Leu-Leu-Leu-aldehyde)
- p53 protein levels in presence of proteasome inhibitor (p53 activation; Myh9-knockdown and control keratinocytes, DNA damage, MG132 3 μM): rescues Myh9 phenotype; also recorded: comparably induced in both Myh9-knockdown and control keratinocytes

Compound: C[C@@H](N)[C@H]1CC[C@H](C(=O)Nc2ccncc2)CC1 [Y27632]
- DDR activation (γH2AX, phosphorylated Chk1 and Chk2) (H2AX, Chk1 and Chk2): normal DDR activation

Compound: Cc1ccc2c(c1)C(=O)C1(O)CCN(c3ccccc3)C1=N2 (centres unmarked) [blebbistatin]
- nuclear p53 accumulation/retention after DNA damage (nuclear p53 accumulation): Nuclear p53 is not retained
- DDR-induced p53 activation (p53 immunoblot) (p53 activation): phenocopied Myh9 loss of function effects on DDR-induced p53 activation
- DDR activation (γH2AX, phosphorylated Chk1 and Chk2) (H2AX, Chk1 and Chk2): normal DDR activation

Compound: COc1cccc2c1C(=O)c1c(O)c3c(c(O)c1C2=O)C[C@@](O)(C(=O)CO)C[C@@H]3O[C@H]1C[C@H](N)[C@H](O)[C@H](C)O1 [doxorubicin]
- p53 activation by DNA damage inducer (p53 activation; control primary keratinocytes): led to p53 activation

Compound: CCC(=C/[C@H](C)C/C=C/C(C)=C/[C@@H](C)C(=O)[C@@H](C)[C@H](O)[C@@H](C)C/C(C)=C/C(=O)O)/C=C/[C@@H]1OC(=O)C=C[C@@H]1C [leptomycinB]
- nuclear p53 accumulation/retention after DNA damage (nuclear p53 accumulation): restored to normal levels
- nuclear p53 accumulation/retention after DNA damage (nuclear p53 accumulation; listed as Leptomycin B): rescues the ability of Myh9-deficient cells to retain p53 in the nucleus; also recorded: restores p53 accumulation after DNA damage
- transactivation of p53 target genes such as CDKN2 (p21) (nuclear p53 accumulation; DDR-induced myosin-IIa-deficient keratinocytes): restored to normal levels

Compound: Brcal-shRNA#560: positive-control shRNA targeting Brca1, 5′-CCCATCATACTTTAATGTGTA-3′ (SEQ ID NO: 1)
- shRNA enrichment in lesions relative to initial pool and healthy skin (HNSCC tumor suppressors): highly enriched

Compound: Myh9-shRNA #504: shRNA targeting Myh9, 5′-CGGTAAATTCATTCGTATCAA-3′ (SEQ ID NO: 3)
- hair follicle down-growth [1]: impaired hair follicle down-growth
- keratinocyte migration (wound closure) (keratinocytes): enhances keratinocyte migration
- myosin-IIa protein in skin/epidermis (myosin-IIa; mice transduced in utero, examined at birth): loss of myosin-IIa
- myosin-IIa immunolabeling in SCC tumor epithelium (myosin-IIa; tumors from TβRII-cKO mice): absent

Compound: Myh9-shRNA #507: shRNA targeting Myh9, 5′-GCGATACTACTCAGGGCTTAT-3′ (SEQ ID NO: 6)
- nuclear p53 staining in skin (nuclear p53): do not show efficient nuclear p53 staining

Compound: latrunculin
- DDR-induced p53 activation (p53 immunoblot) (p53 activation): did not display these effects
- DDR activation (γH2AX, phosphorylated Chk1 and Chk2) (H2AX, Chk1 and Chk2): normal DDR activation
